Measurements taken from publication PMC5458179, “Oxidative DNA double strand breaks and autophagy in the antitumor effect of sterically hindered platinum(II) complexes in NSCLCs” (Oncotarget, 2017).

How the values were obtained:
Format in all cases: cell-based, human
[1] = tested on: A549 cancer cells; experiment: Intracellular ATP production; details: A549, 10 μM, 12 h
Protocol: (§1) Since ATP production is a significant consequence attributed to the dysfunction of mitochondrial energy production, we measured intracellular ATP levels after complex 3 treatment.
(§2) The ATP production assay kit (Haimen, Jiangsu, China) was used to measure intracellular ATP level according to the manufacturer's instructions. […] Detection was performed using the luminometer Orion II (Berthold DS, Bleichstr, Pforzheim, Germany).

[2] = tested on: NCI-H1299 cancer cells; experiment: Intracellular ATP production; details: NCI-H1299, 10 μM, 12 h
Protocol: as §1, §2

[3] = tested on: A549 and NCI-H1299 cancer cells; experiment: Mitochondrial transmembrane potential (JC-1); details: A549 and NCI-H1299, 10 μM, 24 h
Description: To further study the detailed process of apoptosis induced by complex 3 in NSCLC cells, we examined the mitochondrial membrane potential (ΔΨm), which is an important proapoptotic index for early apoptosis. We chose a mitochondria-specific and voltage-dependent fluorescent probe, JC-1, to observe whether there was loss in ΔΨm.
The electrical potential difference across inner mitochondrial membrane (ΔΨm) was monitored using the ΔΨm-specific fluorescent probe JC-1 (Molecular Probes Inc., Eugene, OR), a sensitive fluorescent dye. […] Red fluorescence is attributable to a potential-dependent aggregation in the mitochondria. Green fluorescence, reflecting the monomeric form of JC-1, appeared in the cytosol after mitochondrial membrane depolarization. Relative fluorescence intensities were monitored using the flow cytometry (FACSCalibur, Becton Dickinson), and analyzed by the software Modfit and Cell Quest (BD Biosciences, Franklin Lakes, NJ) with settings of FL1 (green) at 530 nm and FL2 (red) at 585 nm.

[4] = tested on: LC3-II; experiment: Western blot of LC3-II
Protocol: (§3) The role of complex 3-induced autophagy in cell death was further analyzed (Figure 6). When A549 cancer cells were treated with complex 3 of 10 μM, the protein expression of LC3-II was increased (Figure 6A). […] Treatment with complex 3 for 24 h caused a 4.5-folds increase in cells undergoing autophagy (Figure 6C). […] Moreover, Bax and Bcl-2 expressions were measured by western blot analysis of whole cell lysates.
To investigate the role of ROS in complex 3-induced cell death, the level of intracellular H2O2 was measured. […] Exposure of A549 cells to NAC reduced levels of LC3-II from 2.3- to 1.5-folds (Figure 8B). […] In parallel, the complex 3-induced increase ratio of Bax/Bcl-2 was suppressed by NAC (Figure 8E).
(§4) Lysates were centrifuged at 12,000 g for 0.5 h at 4°C. The concentrations of total proteins were measured using the BCA assay method with Varioskan spectrofluorometer and spectrophotometer (Thermo, Waltham, MA) at 562 nm. Protein (20–100 μg) prepared from the indicated cells was loaded per lane and electrophoresed in 8% or 10% sodium dodecyl sulfate polyacrylamide gel electrophoresis (SDS-PAGE), and then transferred onto polyvinylidene difluoride (PVDF) Immobilon-P membrane (Bio-Rad, USA) using a transblot apparatus (Bio-Rad, USA). The membranes were blocked with 5% (w/v) non-fat milk at 0.5 h at 37°C, followed by overnight incubation at 4°C with primary antibodies diluted in PBST. After washing with PBST, the membranes were incubated for 1 h with an IRDye´800 conjugated secondary antibody diluted 1:20000 in PBST, and the labeled proteins were detected with an Odyssey Scanning System (Li-COR., Lincoln, Nebraska, USA).

[5] = tested on: Bax and Bcl-2; experiment: Western blot of Bax and Bcl-2; details: A549, 10 μM, 24 h, whole cell lysates
Protocol: as §3, §4

[6] = tested on: p-XRCC1; experiment: Immunostaining of SSB repair protein; details: A549, 10 μM, 24 h
Description: The serine 139-phosphorylated form of chromatin-associated histone H2AX, namely γ-H2AX, is a key marker of cellular response to DDR, particularly DSBs. […] Obviously, pre-treatment of NAC could considerably alleviate the DDR triggered by complex 3 (Figure 5B). Therefore, we came to a conclusion that complex 3 caused DDR especially DSBs in A549 cells, which might happen after the increased level of intracellular ROS. In order to reveal the mechanisms underlying the enhanced DNA damage, complex 3 was studied to learn whether it could reduce the activation of DNA repair response including the co-localization of DSB repair protein MDC1/Aprataxin within nucleus. […] In order to reveal the mechanisms underlying DNA damage, complex 3 was studied to detect whether it could suppress the activation of DNA single strand break repair via the phosphorylation of SSB repair mediator/adaptor proteins XRCC1 within nucleus.
For assessment of DSBs repair kinetics we detected the total nuclear volume for an average of 50–60 nuclei per time points and cell type. Briefly, A549 cells were grown to confluence in 35 mm petri-dishes with 0.17 mm glass bottom. […] Non-specific binding was blocked by incubation with 5% FCS/PBS/0.1% Triton X-100 for 1 h at RT. […] Numbers of γH2AX foci were counted in 50–60 nuclei and plotted over time as previously described.

For `CC(C)C[NH+]1[C@@H]2CCCC[C@H]2[NH+](CC(C)C)[Pt-2]12[O]C(=O)CC(=O)[O]2` (some centres unmarked) [Complex 3], the “ATP level, % of untreated cells” value [1] was 19.95%, the “ATP level, % of untreated cells” value [2] was 31.89% and the “mitochondrial membrane potential (ΔΨm)” value [3] was “remarkable decrement of ΔΨm”. For the same compound, the “levels of LC3-II” value ([4]; A549, 10 μM complex 18 h, without NAC) was 2.3 folds, the “level of LC3-II” value ([4]; A549, 10 μM, 24 h) was 2.5 folds and the “levels of LC3-II” value ([4]; A549, 5 mM NAC 2 h pretreatment then 10 μM complex 18 h) was 1.5 folds. For the same compound, the “Bax and Bcl-2 protein levels” value [5] was “Incremental changes in pro-apoptotic Bax and decreased changes anti-apoptotic Bcl-2 protein levels” and the “phosphorylation of XRCC1” value [6] was “suppression of phosphorylation of XRCC1 compared with oxaliplatin”.
